Paper PMC11241008, “Response Plasticity of Drosophila Olfactory Sensory Neurons” (International Journal of Molecular Sciences, 2024)

Columns and labels:
Or56a = biological target: T1, Or56a (Drosophila melanogaster, UniProt Q9V8Y7); experiment: GCaMP6f calcium imaging of native OSN somata, open antenna; settings: agonist; Drosophila Ringer pH 7.3; Hill coefficient 0.6; concentration as applied; n = 9
T1 construct: native receptor in ab4B olfactory sensory neurons of excised open antenna, with endogenous Orco; GCaMP6f calcium reporter; no heterologous expression; with Odorant receptor coreceptor
T1 sequence (Q9V8Y7 1-419): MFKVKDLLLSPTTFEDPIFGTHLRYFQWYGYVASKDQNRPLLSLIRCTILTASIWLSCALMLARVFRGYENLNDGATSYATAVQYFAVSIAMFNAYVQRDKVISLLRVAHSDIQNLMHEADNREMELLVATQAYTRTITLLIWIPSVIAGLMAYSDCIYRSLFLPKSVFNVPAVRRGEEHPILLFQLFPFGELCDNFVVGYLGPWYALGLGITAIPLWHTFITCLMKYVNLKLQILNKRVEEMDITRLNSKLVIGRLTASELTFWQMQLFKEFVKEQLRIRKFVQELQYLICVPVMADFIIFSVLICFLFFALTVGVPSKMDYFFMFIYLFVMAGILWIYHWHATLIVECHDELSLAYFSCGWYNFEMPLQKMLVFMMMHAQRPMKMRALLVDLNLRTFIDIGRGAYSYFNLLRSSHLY
T1 sequence (Q9VNB5 1-486 partner): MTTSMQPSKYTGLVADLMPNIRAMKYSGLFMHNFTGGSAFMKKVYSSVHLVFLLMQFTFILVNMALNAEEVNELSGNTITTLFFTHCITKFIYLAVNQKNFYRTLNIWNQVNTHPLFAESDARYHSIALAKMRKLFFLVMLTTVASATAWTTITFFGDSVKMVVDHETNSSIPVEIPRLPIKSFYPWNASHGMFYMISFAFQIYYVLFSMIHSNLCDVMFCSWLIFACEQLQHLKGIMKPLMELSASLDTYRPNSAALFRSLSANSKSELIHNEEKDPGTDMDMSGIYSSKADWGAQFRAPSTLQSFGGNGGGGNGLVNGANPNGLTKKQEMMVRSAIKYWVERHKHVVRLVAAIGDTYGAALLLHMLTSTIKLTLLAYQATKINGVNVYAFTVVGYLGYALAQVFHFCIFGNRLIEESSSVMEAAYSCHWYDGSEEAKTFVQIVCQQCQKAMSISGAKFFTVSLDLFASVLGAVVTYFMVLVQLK

Or22a = biological target: T2, Or22a (Drosophila melanogaster, UniProt P81909); experiment: as above; settings: agonist; Drosophila Ringer pH 7.3; Hill coefficient 0.8; concentration as applied; n = 12
T2 construct: native receptor in ab3A olfactory sensory neurons of excised open antenna, with endogenous Orco; GCaMP6f calcium reporter; no heterologous expression; with Odorant receptor coreceptor
T2 sequence (P81909 1-397): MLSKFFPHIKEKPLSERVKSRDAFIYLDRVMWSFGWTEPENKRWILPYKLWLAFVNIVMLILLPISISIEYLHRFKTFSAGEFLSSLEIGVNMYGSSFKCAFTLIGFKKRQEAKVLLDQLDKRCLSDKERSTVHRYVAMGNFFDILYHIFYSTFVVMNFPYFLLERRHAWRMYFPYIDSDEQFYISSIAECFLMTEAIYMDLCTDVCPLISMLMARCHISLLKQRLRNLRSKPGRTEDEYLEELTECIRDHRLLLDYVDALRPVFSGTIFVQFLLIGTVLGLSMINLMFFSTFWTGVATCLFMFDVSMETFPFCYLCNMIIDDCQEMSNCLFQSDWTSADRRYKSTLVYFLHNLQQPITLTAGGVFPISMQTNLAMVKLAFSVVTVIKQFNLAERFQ
T2 sequence (Q9VNB5 1-486 partner): T1 sequence (Q9VNB5 1-486 partner)

Structure (SMILES) | EC50 (Or56a) [nM] | EC50 (Or22a) [nM]
CC1CCCC2(C)CCCCC12O (racemic) [geosmin] | 25 | 
CCCCCC(=O)OCC [ethyl hexanoate] |  | 1500
